Test results: patent US20060057228A1, “Weight loss composition” (Pure World Botanicals, Inc., priority 2004, published 2006)

Test system: undifferentiated 3T3-L1 cell
Assay: Anti-adipogenesis assay on undifferentiated 3T3-L1 cell
Assay type: cell-based
From the text: The major component of weight gain is the increase and accumulation of fat through adipogenesis process. Adipogenesis is characterized by increase of both fat cell number and fat cell size. The weight loss composition of the present invention, banaba extracts, and some active components which were isolated from banaba have shown strong activity through an inhibitory activity on adipocyte differentiation to block fat cell synthesis to achieve the effect on bodyweight control and body fat loss. The following is the list of the results of anti-adipogenesis assay (Table 4).

[1] = concentration level 0.002% (w/w)
[2] = concentration level 0.004% (w/w)
[3] = concentration level 0.05% (w/w)
[4] = concentration level 0.10% (w/w)

Row | Compound | Percent of inhibitory [1] | Percent of inhibitory [2] | Percent of inhibitory [3] | Percent of inhibitory [4]
1 | COc1c(O)cc2c(=O)oc3c(O)c(O)cc4c(=O)oc1c2c34 [3-O-methylellegic acid] | 97% | 98% |  | 
2 | O=C(O[C@@H]1COC(=O)c2cc(O)c(O)c(O)c2-c2c(cc(O)c(O)c2O)C(=O)O[C@H]1[C@@H]1OC(=O)c2cc(O)c(O)c(O)c2-c2c(O)c(O)c(O)c3c2C(=O)O[C@H]1[C@@H]3O)c1cc(O)c(O)c(O)c1 [Casuarinin] | 100% | 100% | 100% | 100%
3 | Banasulin | 96% | 79% | 99% | 
4 | Lagerstroemin | 100% | 100% | 100% | 100%
